Source: patent US9365576B2, “Pyrrolopyrrolidinone compounds” (Novartis AG, priority 2012, dated 2016)

Key:
Assay type in all cases: binding
[1] = molecular target: T1, human MDM2 protein (amino acids 2-188) (Homo sapiens (Human), UniProt Q00987); experiment: TR-FRET assay, p53-MDM2 Assay 2 (modified); conditions: TR-FRET; 0.1 nM MDM2, 0.1 nM Europium labeled streptavidin, Tecan genios Pro reader; read-out: IC50 p53-MDM2 Assay 2
Procedure, shortened: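 IC50 values were curve-fitted from the time-resolved 665/620 nm emission ratio after 340 nm excitation. The assay combined 0.625 nM europium-streptavidin donor with 1.25 nM C-terminally biotinylated MDM2 2–188 (15 min, RT), followed by 15 min with 10 nM Cy5-labeled p53 18–26 acceptor peptide.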

[2] = molecular target: human MDM4 protein (amino acids 2-185) (Homo sapiens (Human), UniProt O15151); experiment: TR-FRET assay, p53-MDM4 Assay 1; conditions: 2.5 nM MDM4-biotinylated, 10 nM Cy5-p53 peptide
Sequence of human MDM4 protein (amino acids 2-185) (O15151 2-185): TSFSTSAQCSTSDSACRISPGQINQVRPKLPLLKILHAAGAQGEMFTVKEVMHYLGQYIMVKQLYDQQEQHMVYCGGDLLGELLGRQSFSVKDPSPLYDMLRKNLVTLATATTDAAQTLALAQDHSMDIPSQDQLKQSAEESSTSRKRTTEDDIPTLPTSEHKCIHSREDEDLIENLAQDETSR
Procedure: (§1) The inhibition of p53-MDM2 and p53-MDM4 interactions is measured by time resolved fluorescence energy transfer (TR-FRET). Fluorescence energy transfer (or Foerster resonance energy transfer) describes an energy transfer between donor and acceptor fluorescent molecules. For this assay, human MDM2 protein (amino acids 2-188) and human MDM4 protein (amino acids 2-185), tagged with a C-terminal biotin moiety, are used in combination with a Europium labeled streptavidin (Perkin Elmer, Inc., Waltham, Mass., USA) serving as the donor fluorophore. The p53 derived, Cy5 labeled peptide Cy5-TFSDLWKLL (p53 aa18-26) is the energy acceptor. Upon excitation of the donor molecule at 340 nm, binding interaction between MDM2 or MDM4 and the p53 peptide induces energy transfer and enhanced response at the acceptor emission wavelength at 665 nm. Disruption of the formation of the p53-MDM2 or p53-MDM4 complex due to an inhibitor molecule binding to the p53 binding site of MDM2 or MDM4 results in increased donor emission at 620 nm. The ratiometric FRET assay readout is calculated from the raw data of the two distinct fluorescence signals measured in time resolved mode (fluorescence 665 nm/fluorescence 620 nm×1000).
(§2) After addition of 1.25 nM MDM2-biotinylated or 2.5 nM MDM4-biotinylated (internal preparations), and 0.625 nM Europium labeled streptavidin (Perkin Elmer), the solution is pre-incubated for 15 minutes at room temperature, then 10 nM Cy5-p53 peptide (internal preparation) is added before an incubation at room temperature for 15 minutes prior to reading the plate. For measurement of samples, a Victor II microplate reader (Perkin Elmer) is used with the following settings: Excitation 340 nm, Emission Donor 620 nm and Emission Acceptor 665 nm. IC50 values are calculated by curve fitting using XLfit. If not specified, reagents are purchased from Sigma-Aldrich Chemie GmBH, Buchs, Switzerland.
(§3) This assay was used to evaluate compounds displaying inhibition of p53-MDM2 interaction and p53-MDM4 interaction at IC50s of 0.005 to 50 μM (p53-MDM2 Assay 1 and p53-MDM4 Assay 1, respectively). For selected compounds displaying IC50s between […] on MDM2, a slightly modified assay is used with the following adaptations: 0.1 nM MDM2, 0.1 nM Europium labeled streptavidin and Tecan genios Pro is used as a microplate reader for the fluorescence measurements (p53-MDM2 Assay 2).

[3] = molecular target: T1, human MDM2 protein (amino acids 2-188); experiment: TR-FRET assay, p53-MDM2 Assay 1; conditions: 1.25 nM MDM2-biotinylated, 10 nM Cy5-p53 peptide
Procedure: as §1, §2, §3

T1 sequence (Q00987 2-188): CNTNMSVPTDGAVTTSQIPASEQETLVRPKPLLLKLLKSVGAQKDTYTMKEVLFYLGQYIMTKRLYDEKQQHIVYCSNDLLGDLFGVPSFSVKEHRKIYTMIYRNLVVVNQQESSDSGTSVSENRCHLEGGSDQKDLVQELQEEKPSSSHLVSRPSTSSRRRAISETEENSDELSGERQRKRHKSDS

IC50 [1] [nM] | IC50 [2] [nM] | IC50 [3] [nM] | SMILES
31.9 | 2990 | 27 | COc1ccccc1-c1cc2c(n1C(C)C)C(c1ccc(Cl)cc1C)N([C@H]1CC[C@H](O)CC1)C2=O (stereo partly drawn) [Example 101, 6-(4-Chloro-2-methyl-phenyl)-5-(trans-4-hydroxy-cyclohexyl)-1-isopropyl-2-(2-methoxy-phenyl)-5,6-dihydro-1H-pyrrolo[3,4-b]pyrrol-4-one]
13.6 | 2380 | 12.7 | CNC(=O)c1ccc(OC)c(-c2cc3c(n2C(C)C)C(c2ccc(Cl)cc2C)N([C@H]2CC[C@H](O)CC2)C3=O)c1 (stereo partly drawn) [Example 102, 3-[6-(4-Chloro-2-methyl-phenyl)-5-(trans-4-hydroxy-cyclohexyl)-1-isopropyl-4-oxo-1,4,5,6-tetrahydro-pyrrolo[3,4-b]pyrrol-2-yl]-4-methoxy-N-methyl-benzamide]
30.1 | 4710 | 20.7 | COc1ncc(-c2cc3c(n2C(C)C)C(c2ccc(Cl)cc2C)N([C@H]2CC[C@H](O)CC2)C3=O)c(OC)n1 (stereo partly drawn) [Example 103, 6-(4-Chloro-2-methyl-phenyl)-2-(2,4-dimethoxy-pyrimidin-5-yl)-5-(trans-4-hydroxy-cyclohexyl)-1-isopropyl-5,6-dihydro-1H-pyrrolo[3,4-b]pyrrol-4-one]
14.3 | 6290 | 10.2 | COc1ncc(-c2cc3c(n2C(C)C)C(c2ccc(Cl)cc2C)N(C2CCOCC2)C3=O)c(OC)n1 (centres unmarked) [Example 105, 6-(4-Chloro-2-methyl-phenyl)-2-(2,4-dimethoxy-pyrimidin-5-yl)-1-isopropyl-5-(tetrahydro-pyran-4-yl)-5,6-dihydro-1H-pyrrolo[3,4-b]pyrrol-4-one]
2.69 | 3640 | 3 | CNC(=O)N1CCC(N2C(=O)c3cc(-c4cnc(OC)nc4OC)n(C(C)C)c3C2c2ccc(Cl)cc2)CC1 (centres unmarked) [Example 107, 4-[6-(4-Chloro-phenyl)-2-(2,4-dimethoxy-pyrimidin-5-yl)-1-isopropyl-4-oxo-4,6-dihydro-1H-pyrrolo[3,4-b]pyrrol-5-yl]-piperidine-1-carboxylic acid methylamide]
3.7 | 9020 | 3.3 | COc1nc(N)ncc1-c1cc2c(n1C(C)C)C(c1ccc(Cl)cc1)N(C1CCC(=O)N(C)C1)C2=O (centres unmarked) [Example 108, 2-(2-Amino-4-methoxy-pyrimidin-5-yl)-6-(4-chloro-phenyl)-1-isopropyl-5-(1-methyl-6-oxo-piperidin-3-yl)-5,6-dihydro-1H-pyrrolo[3,4-b]pyrrol-4-one]
0.087 | 1060 | 0.6 | COc1ncc(-c2cc3c(n2C(C)C)[C@H](c2ccc(Cl)cc2)N(c2cc(Cl)c(=O)n(C)c2)C3=O)c(OC)n1 [Example 121, (S)-5-(5-Chloro-1-methyl-6-oxo-1,6-dihydro-pyridin-3-yl)-6-(4-chloro-phenyl)-2-(2,4-dimethoxy-pyrimidin-5-yl)-1-isopropyl-5,6-dihydro-1H-pyrrolo[3,4-b]pyrrol-4-one]
0.161 | 716 | 0.8 | COc1nc(N(C)C)ncc1-c1cc2c(n1C(C)C)[C@H](c1ccc(C#N)cc1)N(c1cc(Cl)c[nH]c1=O)C2=O [Example 167, 4-[(S)-5-(5-Chloro-2-oxo-1,2-dihydro-pyridin-3-yl)-2-(2-dimethylamino-4-methoxy-pyrimidin-5-yl)-1-isopropyl-4-oxo-1,4,5,6-tetrahydro-pyrrolo[3,4-b]pyrrol-6-yl]-benzonitrile]
– | > 100000 | 2040 | Cc1cc(N2C(=O)c3cc(-c4ccn(C)c(=O)c4)n(C4CC4)c3C2c2ccc(Cl)cc2)cn(C)c1=O (centres unmarked) [Example 242, 6-(4-Chlorophenyl)-1-cyclopropyl-5-(1,5-dimethyl-6-oxo-1,6-dihydropyridin-3-yl)-2-(1-methyl-2-oxo-1,2-dihydropyridin-4-yl)-5,6-dihydropyrrolo[3,4-b]pyrrol-4(1H)-one]

Second part, the molecule before the results:

SMILES | IC50 [1] [nM] | IC50 [2] [nM] | IC50 [3] [nM]
CNC(=O)c1ccc(OC)c(-c2cc3c(n2C(C)C)C(c2ccc(Cl)cc2C)N(c2cccc(Cl)c2F)C3=O)c1 (centres unmarked) [Example 2, 3-[5-(3-Chloro-2-fluoro-phenyl)-6-(4-chloro-2-methyl-phenyl)-1-isopropyl-4-oxo-1,4,5,6-tetrahydro-pyrrolo[3,4-b]pyrrol-2-yl]-4-methoxy-N-methyl-benzamide] | 0.757 | 2900 | 2.9
CNC(=O)c1ccc(OC)c(-c2cc3c(n2C(C)C)[C@H](c2ccc(Cl)cc2C)N(c2cccc(Cl)c2F)C3=O)c1 [Example 7, 3-[(S)-5-(3-Chloro-2-fluoro-phenyl)-6-(4-chloro-2-methyl-phenyl)-1-isopropyl-4-oxo-1,4,5,6-tetrahydro-pyrrolo[3,4-b]pyrrol-2-yl]-4-methoxy-N-methyl-benzamide] | 0.119 | 507 | 0.6
COc1ccccc1-c1cc2c(n1C(C)C)C(c1ccc(Cl)cc1)N(c1cc(Cl)ccc1C)C2=O (centres unmarked) [Example 9, 5-(5-Chloro-2-methyl-phenyl)-6-(4-chloro-phenyl)-1-isopropyl-2-(2-methoxy-phenyl)-5,6-dihydro-1H-pyrrolo[3,4-b]pyrrol-4-one] | 0.298 | 4030 | 0.6
CNC(=O)c1ccc(OC)c(-c2cc3c(n2C(C)C)C(c2ccc(Cl)cc2)N(c2cc(Cl)ccc2C)C3=O)c1 (centres unmarked) [Example 10, 3-[5-(5-Chloro-2-methyl-phenyl)-6-(4-chloro-phenyl)-1-isopropyl-4-oxo-1,4,5,6-tetrahydro-pyrrolo[3,4-b]pyrrol-2-yl]-4-methoxy-N-methyl-benzamide] | 0.116 | 478 | 0.9
CNC(=O)c1ccc(OC)c(-c2cc3c(n2C(C)C)[C@H](c2ccc(Cl)cc2C)N(c2cc(Cl)ccc2C)C3=O)c1 [Example 32, 3-[(S)-5-(5-Chloro-2-methyl-phenyl)-6-(4-chloro-2-methyl-phenyl)-1-isopropyl-4-oxo-1,4,5,6-tetrahydro-pyrrolo[3,4-b]pyrrol-2-yl]-4-methoxy-N-methyl-benzamide] | 0.094 | 264 | 0.5
COc1ccc(C(=O)NOCCO)cc1-c1cc2c(n1C(C)C)C(c1ccc(Cl)cc1)N(c1cc(Cl)ccc1C)C2=O (centres unmarked) [Example 37, 3-[5-(5-Chloro-2-methyl-phenyl)-6-(4-chloro-phenyl)-1-isopropyl-4-oxo-1,4,5,6-tetrahydro-pyrrolo[3,4-b]pyrrol-2-yl]-N-(2-hydroxy-ethoxy)-4-methoxy-benzamide] | 0.125 | 327 | 1.1
COc1ccc(C(=O)O)cc1-c1cc2c(n1C(C)C)C(c1ccc(Cl)cc1)N([C@H]1CC[C@H](O)CC1)C2=O (stereo partly drawn) [Example 65, 3-[6-(4-Chloro-phenyl)-5-(trans-4-hydroxy-cyclohexyl)-1-isopropyl-4-oxo-1,4,5,6-tetrahydro-pyrrolo[3,4-b]pyrrol-2-yl]-4-methoxy-benzoic acid] | 4.91 | 8790 | 12.3
COc1nc(N)ncc1-c1cc2c(n1C(C)C)C(c1ccc(Cl)cc1)N([C@H]1CC[C@H](O)CC1)C2=O (stereo partly drawn) [Example 68, 2-(2-Amino-4-methoxy-pyrimidin-5-yl)-6-(4-chloro-phenyl)-5-(trans-4-hydroxy-cyclohexyl)-1-isopropyl-5,6-dihydro-1H-pyrrolo[3,4-b]pyrrol-4-one] | 14.2 | 7860 | 12.6
COc1nc(N)ncc1-c1cc2c(n1C(C)C)C(c1ccc(Cl)cc1)N(C1CCOCC1)C2=O (centres unmarked) [Example 78, 2-(2-Amino-4-methoxy-pyrimidin-5-yl)-6-(4-chloro-phenyl)-1-isopropyl-5-(tetrahydro-pyran-4-yl)-5,6-dihydro-1H-pyrrolo[3,4-b]pyrrol-4-one] | 5.08 | 14000 | 8.5
